The text below walks through data of ChEMBL document CHEMBL2434921, “New synthetic aliphatic sulfonamido-quaternary ammonium salts as anticancer chemotherapeutic agents” (2013).

Broadly, the GI50 is the concentration that inhibits growth by half.

In test [1] the test system is NUGC-3. Kind of test: Growth inhibition of human NUGC3 cells after 48 hrs by SRB assay. The class given is functional. To be noted: NUGC-3, 48 h. On the technique in general: The SRB assay estimates cell density from bound dye.
Test [2] deals with PC-3. In words: Growth inhibition of human PC3 cells after 48 hrs by SRB assay. The class given is functional. The note with it: PC-3, 48 h.
The test system of test [3] is PC-3. Kind of test: Growth of human PC3 cells at 10 uM after 48 hrs by SRB assay. To be noted: PC-3, 48 h.
Test [4] has as its system ACHN. In words: Growth of human ACHN cells at 10 uM after 48 hrs by SRB assay.
The test system of test [5] is PC-3. Kind of test: Growth inhibition of human PC3 cells at 1 uM after 48 hrs by SRB assay; values are per cent of control. The note with it: PC-3, 48 h.
The test system of test [6] is MDA-MB-231. In words: Growth of human MDA-MB-231 cells at 10 uM after 48 hrs by SRB assay. To be noted: MDA-MB-231, 48 h.
Test [7] has as its system HCT-15. In words: Growth of human HCT15 cells at 3 uM after 48 hrs by SRB assay. The note with it: HCT-15, 48 h.
Test [8] concerns HCT-15. In words: Growth of human HCT15 cells at 0.3 uM after 48 hrs by SRB assay. The note with it: HCT-15, 48 h.
The subject of test [9] is NUGC-3. Kind of test: Growth of human NUGC3 cells at 1 uM after 48 hrs by SRB assay. The note with it: NUGC-3, 48 h.
Test [10] deals with NCI-H23. Kind of test: Growth of human NCI-H23 cells at 10 uM after 48 hrs by SRB assay. To be noted: NCI-H23, 48 h.
The subject of test [11] is PC-3. In words: Growth inhibition of human PC3 cells at 0.3 uM after 48 hrs by SRB assay; values are per cent of control. To be noted: PC-3, 48 h.
Test [12] has as its system NCI-H23. In words: Growth inhibition of human NCI-H23 cells at 1 uM after 48 hrs by SRB assay; values are per cent of control. To be noted: NCI-H23, 48 h.
In test [13] the test system is MDA-MB-231. Kind of test: Growth of human MDA-MB-231 cells at 1 uM after 48 hrs by SRB assay. The note with it: MDA-MB-231, 48 h.
Test [14] concerns NUGC-3. In words: Growth inhibition of human NUGC3 cells at 3 uM after 48 hrs by SRB assay; values are per cent of control. The note with it: NUGC-3, 48 h.
Test [15] addresses Rho-related GTP-binding protein RhoB (Homo sapiens) (UniProt P62745). In words: Transactivation of RhoB (unknown origin) transfected in human HeLa cells at 5 uM measured over 10 secs by dual luciferase reporter gene assay. The class given is cell-based.
Test [16] has as its system ACHN. Kind of test: Growth of human ACHN cells at 0.3 uM after 48 hrs by SRB assay.
In test [17] the test system is NCI-H23. In words: Growth inhibition of human NCI-H23 cells after 48 hrs by SRB assay. The class given is functional. To be noted: NCI-H23, 48 h.
In test [18] the test system is NUGC-3. In words: Growth of human NUGC3 cells at 0.1 uM after 48 hrs by SRB assay. To be noted: NUGC-3, 48 h.
The subject of test [19] is ACHN. In words: Growth of human ACHN cells at 0.1 uM after 48 hrs by SRB assay.
Test [20] deals with NCI-H23. Kind of test: Growth inhibition of human NCI-H23 cells at 0.1 uM after 48 hrs by SRB assay; values are per cent of control. The note with it: NCI-H23, 48 h.
In test [21] the test system is NUGC-3. In words: Growth of human NUGC3 cells at 0.3 uM after 48 hrs by SRB assay. To be noted: NUGC-3, 48 h.
In test [22] the test system is HCT-15. In words: Growth inhibition of human HCT15 cells at 10 uM after 48 hrs by SRB assay; values are per cent of control. The note with it: HCT-15, 48 h.
The subject of test [23] is ACHN. Kind of test: Growth inhibition of human ACHN cells after 48 hrs by SRB assay. The class given is functional.
In test [24] the test system is ACHN. Kind of test: Growth inhibition of human ACHN cells at 3 uM after 48 hrs by SRB assay; values are per cent of control.
Test [25] has as its system PC-3. Kind of test: Growth inhibition of human PC3 cells at 0.1 uM after 48 hrs by SRB assay; values are per cent of control. The note with it: PC-3, 48 h.
Test [26] concerns PC-3. Kind of test: Growth inhibition of human PC3 cells at 3 uM after 48 hrs by SRB assay; values are per cent of control. To be noted: PC-3, 48 h.
Test [27] relates to HCT-15. Kind of test: Growth inhibition of human HCT15 cells at 1 uM after 48 hrs by SRB assay; values are per cent of control. To be noted: HCT-15, 48 h.
Test [28] has as its system NCI-H23. Kind of test: Growth inhibition of human NCI-H23 cells at 3 uM after 48 hrs by SRB assay; values are per cent of control. To be noted: NCI-H23, 48 h.
Test [29] concerns HCT-15. Kind of test: Growth inhibition of human HCT15 cells at 0.1 uM after 48 hrs by SRB assay; values are per cent of control. The note with it: HCT-15, 48 h.
The subject of test [30] is MDA-MB-231. In words: Growth inhibition of human MDA-MB-231 cells at 0.3 uM after 48 hrs by SRB assay; values are per cent of control. To be noted: MDA-MB-231, 48 h.
The test system of test [31] is HCT-15. In words: Growth inhibition of human HCT15 cells after 48 hrs by SRB assay. Type of test: functional.
The subject of test [32] is MDA-MB-231. Kind of test: Growth inhibition of human MDA-MB-231 cells after 48 hrs by SRB assay. To be noted: MDA-MB-231, 48 h. The class given is functional.
Test [33] concerns NUGC-3. Kind of test: Growth inhibition of human NUGC3 cells at 10 uM after 48 hrs by SRB assay; values are per cent of control. To be noted: NUGC-3, 48 h.
In test [34] the test system is NCI-H23. Kind of test: Growth of human NCI-H23 cells at 0.3 uM after 48 hrs by SRB assay. The note with it: NCI-H23, 48 h.
In test [35] the test system is ACHN. Kind of test: Growth inhibition of human ACHN cells at 1 uM after 48 hrs by SRB assay; values are per cent of control.
For test [36], the system named is MDA-MB-231. Kind of test: Growth of human MDA-MB-231 cells at 0.1 uM after 48 hrs by SRB assay. To be noted: MDA-MB-231, 48 h.
Test [37] has as its system MDA-MB-231. Kind of test: Growth of human MDA-MB-231 cells at 3 uM after 48 hrs by SRB assay; values are per cent of control. To be noted: MDA-MB-231, 48 h.

Activity calls are given as the source filed them. No cut-off for these calls is given here.

Rho-related GTP-binding protein RhoB (Homo sapiens), sequence (P62745 whole entry): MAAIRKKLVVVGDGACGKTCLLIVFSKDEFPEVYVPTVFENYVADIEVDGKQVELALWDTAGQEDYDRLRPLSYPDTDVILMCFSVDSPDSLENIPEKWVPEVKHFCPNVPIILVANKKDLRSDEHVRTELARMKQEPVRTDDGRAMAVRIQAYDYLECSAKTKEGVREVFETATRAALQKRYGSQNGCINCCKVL

Turning to `CCCCCCCCCCCCCCCCCCOP(=O)([O-])OC1CC[N+](C)(C)CC1` [PERIFOSINE], the concentration for 50% growth inhibition (GI50) with NUGC-3 [1] was 540 nM; with PC-3 [2], 440 nM.

In the case of `CCCCCCCCCCCCCCS(=O)(=O)NCC(C)(C)C[N+](C)(C)CC`, the growth, % of control at 10 µM in the test with PC-3 [3] was -26%; with ACHN [4] it was 36.1%; in the test on MDA-MB-231 [6] it was 12.9%; in the test with NCI-H23 [10], -4%; in the test with HCT-15 [22], 59.4%; with NUGC-3 [33], -15.7%. Moreover, the growth, % of control at 1 µM in the test with PC-3 [5] was found to be 19.6%; in the test on NUGC-3 [9] it was 33.8%; in the test with NCI-H23 [12], 52.9%; in the test on MDA-MB-231 [13], 49.9%; in the test with HCT-15 [27] it was 104%; in the test on ACHN [35], 68.2%. For the same compound, the growth, % of control at 3 µM is 91.6% in the test with HCT-15 [7]; 3.9% in the test on NUGC-3 [14]; 60.6% with ACHN [24]; -11.9% with PC-3 [26]; 28.3% with NCI-H23 [28]; 32.8% with MDA-MB-231 [37]. For the same compound, the growth, % of control at 0.3 µM came out at 111% in the test on HCT-15 [8]; 99.3% in the test with PC-3 [11]; 97.7% with ACHN [16]; 107% in the test with NUGC-3 [21]; 89.3% in the test on MDA-MB-231 [30]; 109% with NCI-H23 [34]. For the same compound, the GI50 in the test with NUGC-3 [1] turned out to be 510 nM; with PC-3 [2] it was 460 nM; in the test on NCI-H23 [17], 730 nM; in the test on ACHN [23], 2520 nM; in the test on MDA-MB-231 [32] it was 720 nM. For the same compound, in [15], the outcome was Active. The growth, % of control at 0.1 µM came to 110% in the test on NUGC-3 [18]; 101% in the test with ACHN [19]; 121% in the test on NCI-H23 [20]; 106% in the test with PC-3 [25]; 112% in the test on HCT-15 [29]; 91.2% in the test on MDA-MB-231 [36]. Moreover, in the test on HCT-15 [31], the GI50 result was “inactive”.

In the case of `CCCCCCCCCCCCCCCC(=O)N1CC[N+](C)(C)CC1`, the GI50 stood at 290 nM with NUGC-3 [1]; 480 nM in the test on PC-3 [2]; 580 nM in the test on HCT-15 [31] (HCT-15, 48 h). In addition, the result in test [15] was Active.
